Assay results: patent publication US20050090529A1, “3,5 Disubstituted indazole compounds with nitrogen-bearing 5-membered heterocycles, pharmaceutical compositions, and methods for mediating or inhibiting cell proliferation” (PFIZER INC, priority 2003, published 2005)

Tested on: Cyclin-dependent kinase
Assay: Cyclin-dependent kinase inhibition, % inhibition at 10 nM (library Examples 99-270)
Type: biochemical
Settings: 10 nM compound
Summary of the method: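 Radiometric filter assay: kinase transfers ³²P/³³P from 25 μM ATP to a protein substrate in pH 7.4 HEPES buffer with MgCl2, 2% DMSO, 30° C, 20 min. EDTA stop; substrate captured on nitrocellulose or phosphocellulose membrane, washed with phosphoric acid, counted by phosphorimager.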

Row | SMILES | % Inhib @ 10 nM [%]
1 | CCNCc1cncc(-c2ccc3[nH]nc(-c4ncc(C(=O)N5C[C@@H]6C[C@H]5CO6)[nH]4)c3c2)c1C [Example 186, ethyl{[4-methyl-5-(3-{5-[(1S,4S)-2-oxa-5-azabicyclo[2.2.1]hept-5-ylcarbonyl]-1H-imidazol-2-yl)-1H-indazol-5-yl)pyridin-3-yl]methyl}amine] | 61
2 | CCNCc1cncc(-c2ccc3[nH]nc(-c4ncc(C(=O)N5CC6C[C@H]5CN6)[nH]4)c3c2)c1C [Example 187] | 44
3 | CCNCc1cncc(-c2ccc3[nH]nc(-c4ncc(C(=O)N5CCC(c6cccc(O)c6)CC5)[nH]4)c3c2)c1C [Example 191, 3-(1-{[2-(5-{5-[(ethylamino)methyl]-4-methylpyridin-3-yl}-1H-indazol-3-yl)-1H-imidazol-5-yl]carbonyl}piperidin-4-yl)phenol] | 74
4 | CCNCc1cncc(-c2ccc3[nH]nc(-c4ncc(C(=O)NCCC5CCN(Cc6ccccc6)CC5)[nH]4)c3c2)c1C [Example 192, N-[2-(1-benzylpiperidin-4-yl)ethyl]-2-(5-{5-[(ethylamino)methyl]-4-methylpyridin-3-yl}-1H-indazol-3-yl)-1H-imidazole-5-carboxamide] | 30
5 | CCNCc1cncc(-c2ccc3[nH]nc(-c4ncc(C(=O)N5CCCC5c5cccc6ccccc56)[nH]4)c3c2)c1C (centres unmarked) [Example 195, ethyl({4-methyl-5-(3-(5-{[2-(1-naphthyl)pyrrolidin-1-yl]carbonyl}-1H-imidazol-2-yl)-1 H-indazol-5-yl]pyridin-3-yl]methyl)amine] | 32
6 | CCNCc1cncc(-c2ccc3[nH]nc(-c4ncc(C(=O)N5CCC(Oc6ccccc6)CC5)[nH]4)c3c2)c1C [Example 196, ethyl{[4-methyl-5-(3-{5-[(4-phenoxypiperidin-1-yl)carbonyl]-1H-imidazol-2-yl]-1H-indazol-5-yl)pyridin-3-yl]methyl}amine] | 71
7 | CCNCc1cncc(-c2ccc3[nH]nc(-c4ncc(C(=O)N5CCC(C)(c6cccc(OC)c6)C5)[nH]4)c3c2)c1C (centres unmarked) [Example 197, ethyl({5-[3-(5-{[3-(3-methoxyphenyl)-3-methylpyrrolidin-1-yl]carbonyl}-1H-imidazol-2-yl)-1H-indazol-5-yl]-4-methylpyridin-3-yl}methyl)amine] | 67
8 | CCNCc1cncc(-c2ccc3[nH]nc(-c4ncc(C(=O)NCCN(C)CCCCCO)[nH]4)c3c2)c1C [Example 199, 2-(5-{5-[(ethylamino)methyl]-4-methylpyridin-3-yl}-1H-indazol-3-yl)-N-{2-[(5-hydroxypentyl)(methyl)amino]ethyl}-1H-imidazole-5-carboxamide] | 25
9 | CCNCc1cncc(-c2ccc3[nH]nc(-c4ncc(C(=O)N5CCC(c6c[nH]c7ccccc67)CC5)[nH]4)c3c2)c1C [Example 201, ethyl({5-(3-(5-{[4-(1H-indol-3-yl)pipendin-1-yl]carbonyl}-1H-imidazol-2-yl)-1H-indazol-5-yl]-4-methylpyridin-3-yl}methyl)amine] | 67
10 | CCNCc1cncc(-c2ccc3[nH]nc(-c4ncc(C(=O)N[C@@H]5CCCC[C@H]5OCc5ccccc5)[nH]4)c3c2)c1C [Example 203, N-[(1R,2R)-2-(benzyloxy)cyclohexyl]-2-(5-{5-[(ethylamino)methyl]-4-methylpyridin-3-yl)-1H-indazol-3-yl)-1H-imidazole-5-carboxamide] | 31
11 | CCNCc1cncc(-c2ccc3[nH]nc(-c4ncc(C(=O)NC[C@]5(O)CC[C@H](c6ccccc6)CC5)[nH]4)c3c2)c1C [Example 204, 2-(5-{5-[(ethylamino)methyl]-4-methylpyridin-3-yl}-1H-indazol-3-yl)-N-[(trans-1-hydroxy-4-phenylcyclohexyl)methyl]-1H-imidazole-5-carboxamide] | 77
12 | CCNCc1cncc(-c2ccc3[nH]nc(-c4ncc(C(=O)N5CCC6(CC5)CNC(=O)C6)[nH]4)c3c2)c1C [Example 205, 8-{[2-(5-{5-[(ethylamino)methyl]-4-methylpyridin-3-yl}-1H-indazol-3-yl)-1H-imidazol-5-yl]carbanyl}-2,8-diazaspiro[4.5]decan-3-one] | 40
13 | CCNCc1cncc(-c2ccc3[nH]nc(-c4ncc(C(=O)N(CCC#N)Cc5cccnc5)[nH]4)c3c2)c1C [Example 206, N-(2-cyanoethyl)-2-(5-{5-N(ethylamino)methyl8-4-methylpyridin-3-yl}-1H-indazol-3-yl)-N-(pyridin-3-ylmethyl)-1H-imidazole-5-carboxamide] | 71
14 | C=C(C)CN(CC)C(=O)c1cnc(-c2n[nH]c3ccc(-c4cncc(CNCC)c4C)cc23)[nH]1 [Example 207] | 69
15 | CCNCc1cncc(-c2ccc3[nH]nc(-c4ncc(C(=O)N5CCN6CCCC6C5)[nH]4)c3c2)c1C (centres unmarked) [Example 209] | 37
16 | CCNCc1cncc(-c2ccc3[nH]nc(-c4ncc(C(=O)NCc5ccc(OC)c6ccccc56)[nH]4)c3c2)c1C [Example 212] | 71
17 | CCNCc1cncc(-c2ccc3[nH]nc(-c4ncc(C(=O)N(CC#N)Cc5ccccc5)[nH]4)c3c2)c1C [Example 213, N-benzyl-N-(cyanomethyl)-2-(5-{5-[(ethylamino)methyl]-4-methylpyridin-3-yl}-1H-indazol-3-yl)-1H-imidazale-5-carboxamide] | 68
18 | CCNCc1cncc(-c2ccc3[nH]nc(-c4ncc(C(=O)N5CCN(CCC#N)CC5)[nH]4)c3c2)c1C [Example 214, 3-(4-{[2-(5-{5-[(ethylamino)methyl]-4-methylpyridin-3-yl}-1H-indazol-3-yl)-1H-imidazol-5-yl]carbonyl}piperazin-1-yl)propanenitrile] | 40
19 | CCNCc1cncc(-c2ccc3[nH]nc(-c4ncc(C(=O)NCCC56CCCN5CCC6)[nH]4)c3c2)c1C [Example 216, 2-(5-{5-[(ethylamino)methyl]-4-methylpyridin-3-yl}-1H-indazol-3-yl)-N-[2-(tetrahydro-1H-pyrrolizin-7a(5H)-yl)ethyl]-1H-imidazole-5-carboxamide] | 13
20 | CCNCc1cncc(-c2ccc3[nH]nc(-c4ncc(C(=O)N5CCc6ncsc6C5)[nH]4)c3c2)c1C [Example 217, [(5-{3-[5-(6,7-dihydro[1,3]thiazolo[5,4-c]pyridin-5(4H)-ylcarbonyl)-1H-imidazol-2-yl]-1H-indazol-5-yl}-4-methylpyridin-3-yl)methyl]ethylamine] | 79

Second part, the compound after the results:

Row | % Inhib @ 10 nM [%] | SMILES
21 | 41 | CCNCc1cncc(-c2ccc3[nH]nc(-c4ncc(C(=O)NCc5ccc(C(F)(F)F)nc5)[nH]4)c3c2)c1C [Example 188, 2-(5-{5-[(ethylamino)methyl]-4-methylpyridin-3-yl}-1H-indazol-3-yl)-N-{(6-(trifluoromethyl)pyridin-3-yl]methyl}-1H-imidazole-5-carboxamide]
22 | 59 | CCNCc1cncc(-c2ccc3[nH]nc(-c4ncc(C(=O)NCCCc5c[nH]cn5)[nH]4)c3c2)c1C [Example 189, 2-(5-{5-[(ethylamino)methyl]-4-methylpyridin-3-yl}-1H-indazol-3-yl)-N-[3-(1H-imidazol-4-yl)propyl]-1H-imidazole-5-carboxamide]
23 | 76 | CCNCc1cncc(-c2ccc3[nH]nc(-c4ncc(C(=O)N(C)C)[nH]4)c3c2)c1C [Example 190, 2-(5-{5-[(ethylamino)methyl}-4-methylpyridin-3-yl}-1H-indazol-3-yl)-N,N-dimethyl-1H-imidazole-5-carboxamide]
24 | 52 | CCNCc1cncc(-c2ccc3[nH]nc(-c4ncc(C(=O)N5C[C@@H]6[C@@H](N)[C@@H]6C5)[nH]4)c3c2)c1C [Example 193]
25 | 65 | CCNCc1cncc(-c2ccc3[nH]nc(-c4ncc(C(=O)NCc5ccc(C(=O)OC)cc5)[nH]4)c3c2)c1C [Example 194, methyl-4-[({[2-(5-{5-[(ethylamino)methyl]-4-methylpyridin-3-yl}-1H-indazol-3-yl)-1H-imidazol-5-yl]carbonyl}amino)methyl]benzoate]
26 | 55 | CCNCc1cncc(-c2ccc3[nH]nc(-c4ncc(C(=O)NCCc5ncn[nH]5)[nH]4)c3c2)c1C [Example 198, 2-(5-{5-[(ethylamino)methyl]-4-methylpyridin-3-yl}-1H-indazol-3-yl)-N-[2-(1H-1,2,4-triazol-5-yl)ethyl]-1H-imidazole-5-carboxamide]
27 | 63 | CCNCc1cncc(-c2ccc3[nH]nc(-c4ncc(C(=O)NCC(=O)OCc5ccccc5)[nH]4)c3c2)c1C [Example 200, benzyl N-{[2-(5-{5-[(ethylamino)methyl]-4-methylpyridin-3-yl}-1H-indazol-3-yl)-1H-imidazol-5-yl]carbonyl}glycinate]
28 | 49 | CCNCc1cncc(-c2ccc3[nH]nc(-c4ncc(C(=O)NCc5ccc(S(C)(=O)=O)cc5)[nH]4)c3c2)c1C [Example 202, 2-(5-{5-[(ethylamino)methyl]-4-methylpyridin-3-yl}-1H-indazol-3-yl)-N-[4-(methylsulfonyl)benzyl]-1H-imidazole-5-carboxamide]
29 | 55 | CCNCc1cncc(-c2ccc3[nH]nc(-c4ncc(C(=O)NCC56C=CC(O5)[C@H]5C(=O)N(C)C(=O)[C@H]56)[nH]4)c3c2)c1C (stereo partly drawn) [Example 208, 2-(5-{5-[(ethylamino)methyl]-4-methylpyridin-3-yl}-1H-indazol-3-yl)-N-{[(3aR,7aS)-2-methyl-13-dioxo-1,2,3,3a,7,7a-hexahydro-4H-4,7-epoxyisoindol-4-yl]methyl}-1H-imidazole-5-carboxamide]
30 | 35 | CCNCc1cncc(-c2ccc3[nH]nc(-c4ncc(C(=O)NCC5(N(C)C)CCOCC5)[nH]4)c3c2)c1C [Example 210]
31 | 57 | CCNCc1cncc(-c2ccc3[nH]nc(-c4ncc(C(=O)NC5CCOCC5)[nH]4)c3c2)c1C [Example 211, 2-(5-{5-[(ethylamino)methyl]-4-methylpyridin-3-yl}-1H-indazol-3-yl)-N-(tetrahydro-2H-pyran-4-yl)-1H-imidazole-5-carboxamide]
32 | 72 | CCNCc1cncc(-c2ccc3[nH]nc(-c4ncc(C(=O)NCc5cc6cc[nH]c6cn5)[nH]4)c3c2)c1C [Example 215]
